The values that follow are results of earlier work, collected in US12296049B2, “Immediate release dosage form” (Kenvue Brands LLC, priority 2019, dated 2025).

For this series the following is noted: at lower acidic pH it precipitates.

For the compound `COc1ccc2cc([C@H](C)C(=O)O)ccc2c1` [naproxen sodium], the “pH at which the drug stays in solution” value is “above 5.4”.
